Laboratory results taken from patent US8853392B2, “Benzamide mGluR5 positive allosteric modulators and methods of making and using same” (Vanderbilt University, priority 2007, dated 2014).
Several values for one entry are separate records, joined by “and”; a condition that tells them apart may be missing. Equal entries are not always repeated. Entries after “also recorded” stand apart in the source; their conditions may differ. Where two headings read alike, the source gives them in different places.

Columns and labels:
[1] = molecular target: T1, rat mGluR5 (Rattus norvegicus, UniProt P31424); experiment: potentiation of mGluR5 response to glutamate, Ca2+ fluorescence (FDSS) in HEK cells transfected with rat mGluR5; format: cell-based; details: for Emax: HEK293, read-out: % Glu Max
T1 construct: expressed in transfected cells; host or cells: human embryonic kidney (HEK) cells
Method: Human embryonic kidney (HEK) cells transfected with rat mGluR5 were plated in clear bottom assay plates for assay in a Functional Drug Screening System (FDSS). The cells were loaded with a Ca^2+-sensitive fluorescent dye (e.g., Fluo-4), and the plates were washed and placed in the FDSS instrument. After establishment of a fluorescence baseline for twelve seconds, the compounds of the present invention were added to the cells, and the response in cells was measured. Five minutes later, an mGluR5 agonist (e.g., glutamate, 3,5-dihydroxyphenylglycine, or quisqualate) was added to the cells, and the response of the cells was measured. Potentiation of the agonist response of mGluR5 by the compounds in the present invention was observed as an increase in response to non-maximal concentrations of agonist (here, glutamate) in the presence of compound compared to the response to agonist in the absence of compound.
The above described assay operated in two modes. In the first mode, a range of concentrations of the present compounds were added to cells, followed by a single fixed concentration of agonist. If a compound acted as a potentiator, an EC50 value for potentiation and a maximum extent of potentiation by the compound at this concentration of agonist was determined by non-linear curve fitting. In the second mode, several fixed concentrations of the present compounds were added to various wells on a plate, followed by a range of concentrations of agonist for each concentration of present compound; the EC50 values for the agonist at each concentration of compound were determined by non-linear curve fitting. A decrease in the EC50 value of the agonist with increasing concentrations of the present compounds (a leftward shift of the agonist concentration-response curve) is an indication of the degree of mGluR5 potentiation at a given concentration of the present compound. An increase in the EC50 value of the agonist with increasing concentrations of the present compounds (a rightward shift of the agonist concentration-response curve) is an indication of the degree of mGluR5 antagonism at a given concentration of the present compound. The second mode also indicates whether the present compounds also affect the maximum response to mGluR5 to agonists.
Human embryonic kidney (HEK) cells transfected with rat mGluR5 were plated in clear-bottomed, poly-D-lysine-coated assay plates in glutamate-glutamine-free medium growth and incubated overnight at 37° C. in 5% CO2. The following day, cells were loaded with 2 μM calcium indicator dye, fluo-4 AM, for 1 h at 37° C. Dye was removed and replaced with assay buffer containing 1× Hanks balanced salt solution (Invitrogen, Carlsbad, Calif.), 20 mM HEPES, and 2.5 mM probenecid, pH 7.4. Cell plates were then loaded into the Functional Drug Screening System 6000 (FDSS 6000, Hamamatsu, Japan). After establishment of a fluorescence baseline for twelve seconds, the compounds of the present invention were added to the cells, and the response in cells was measured. Five minutes later, an mGluR5 agonist (e.g., glutamate, 3,5-dihydroxyphenylglycine, or quisqualate) was added to the cells, and the response of the cells was measured during a 1 minute incubation with agonists. Typically, the effect of test compounds of the present invention was on an EC20 concentration of glutamate was measured. All test compounds were dissolved and diluted in 100% DMSO and then serially diluted into assay buffer for a 2.5× stock in 0.25% DMSO; stock compounds were then added to the assay for a final DMSO concentration of 0.1%. Calcium fluorescence measures were recorded as fold over basal fluorescence; raw data was then normalized to the maximal response to agonist. Potentiation of the agonist response of mGluR5 by the compounds in the present invention was observed as an increase in response to non-maximal concentrations of agonist (here, glutamate) in the presence of compound compared to the response to agonist in the absence of compound. […]

[2] = test system: amphetamine-induced hyperlocomotion; experiment: reversal of amphetamine-induced hyperlocomotion; format: in vivo, male Sprague-Dawley rats; details: rats, i.p.; FIG. 8-10, 13, 14
Method: For example, compounds of the present invention reverse amphetamine-induced hyperlocomotion in male Sprague-Dawley rats at doses ranging from 1 to 100 mg/kg i.p. Data for three example compounds follow:
Locomotor activity can be assessed as mean distance traveled (cm) in standard 16×16 photocell testing chambers measuring 43.2 cm (L)×43.2 cm (W)×30.5 cm (H) (Med Associates, St. Albans, Vt.). Animals can be habituated to individual activity chambers for at least 60 min prior to drug administration. Following administration of appropriate drugs or vehicle, activity can be recorded for a 3 hr time period. Data can be expressed as the mean (±SEM) distance traveled recorded in 10 min intervals over the test period. The data can be analyzed using repeated measures analysis of variance (ANOVA) followed by post-hoc testing using Tukey's HSD test, when appropriate. A difference can be considered significant when p≦0.05.

[3] = maximum extent of potentiation, normalized to maximal response to glutamate, SAR tables
[4] = Table 1, EC50 for potentiating the mGluR5 receptor, unit inferred, read-out: EC50
[5] = potentiation of glutamate response, HEK cells transfected with rat mGluR5, SAR tables, read-out: EC50
[6] = in vitro potency, read-out: In vitro

T1 sequence (P31424 21-1203): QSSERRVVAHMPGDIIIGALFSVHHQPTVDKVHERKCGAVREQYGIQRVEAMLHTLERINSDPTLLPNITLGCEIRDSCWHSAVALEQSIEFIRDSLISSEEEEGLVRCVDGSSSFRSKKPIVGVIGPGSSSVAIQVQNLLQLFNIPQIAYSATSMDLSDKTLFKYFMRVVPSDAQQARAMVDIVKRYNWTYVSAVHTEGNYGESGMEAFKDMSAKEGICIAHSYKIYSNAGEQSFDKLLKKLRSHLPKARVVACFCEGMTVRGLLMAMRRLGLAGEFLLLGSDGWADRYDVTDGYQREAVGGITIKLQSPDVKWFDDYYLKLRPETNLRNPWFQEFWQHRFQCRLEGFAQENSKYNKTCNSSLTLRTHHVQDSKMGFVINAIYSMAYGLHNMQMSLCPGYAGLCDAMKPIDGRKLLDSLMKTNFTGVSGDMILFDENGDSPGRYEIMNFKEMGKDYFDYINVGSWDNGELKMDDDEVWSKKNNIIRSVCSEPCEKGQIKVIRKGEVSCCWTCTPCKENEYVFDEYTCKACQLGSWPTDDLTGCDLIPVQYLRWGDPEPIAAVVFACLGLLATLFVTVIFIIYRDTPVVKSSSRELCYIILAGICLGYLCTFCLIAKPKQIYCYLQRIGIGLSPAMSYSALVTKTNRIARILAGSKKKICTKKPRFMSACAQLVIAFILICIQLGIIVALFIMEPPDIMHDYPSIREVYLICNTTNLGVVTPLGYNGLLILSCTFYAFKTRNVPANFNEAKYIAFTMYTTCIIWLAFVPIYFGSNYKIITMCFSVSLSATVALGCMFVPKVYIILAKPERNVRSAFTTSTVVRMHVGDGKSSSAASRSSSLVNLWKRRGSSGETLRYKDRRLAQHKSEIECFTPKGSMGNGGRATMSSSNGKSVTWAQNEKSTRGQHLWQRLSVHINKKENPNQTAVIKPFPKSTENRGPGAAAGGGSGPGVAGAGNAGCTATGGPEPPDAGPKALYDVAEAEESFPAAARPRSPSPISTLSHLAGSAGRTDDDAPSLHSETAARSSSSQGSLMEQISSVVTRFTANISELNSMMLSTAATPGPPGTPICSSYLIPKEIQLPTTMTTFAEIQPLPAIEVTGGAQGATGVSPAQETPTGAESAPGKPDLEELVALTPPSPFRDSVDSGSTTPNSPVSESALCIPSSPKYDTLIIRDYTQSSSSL

Row | EC50 [1, 4] | Structure (SMILES) | other results
1 | 0.012 µM | O=C(c1ccc(C#Cc2ccccc2F)cc1)N1CCOCC1 [Compound 20i, (4-((2-fluorophenyl)ethynyl)phenyl)(morpholino)methanone] | Emax [1, 3]: 105%; EC50 [1, 5]: 0.012 µM
2 | 0.00532 µM | O=C(c1ccc(C#Cc2cccc(F)c2)cc1)N1CCOCC1 [Compound 20j, (4-((3-fluorophenyl)ethynyl)phenyl)(morpholino)methanone] | Emax [1, 3]: 112%; EC50 [1, 5]: 0.0053 µM
3 | 0.0247 µM | O=C(c1ccc(C#Cc2ccc(F)cc2)cc1)N1CCOCC1 [Compound 20k, (4-((4-fluorophenyl)ethynyl)phenyl)(morpholino)methanone] | Emax [1, 3]: 107%; EC50 [1, 5]: 0.0236 µM
4 | 0.0351 µM | O=C(c1ccc(C#Cc2ccc(F)c(F)c2)cc1)N1CCOCC1 [Compound 20l, (4-((3,4-difluorophenyl)ethynyl)phenyl)(morpholino)methanone] | Emax [1, 3]: 114%; EC50 [1, 5]: 0.0335 µM
5 | 0.187 µM | O=C(c1ccc(C#Cc2ccccc2F)cc1)N1CC(O)C1 [Compound 20m, (4-((2-fluorophenyl)ethynyl)phenyl)(3-hydroxyazetidin-1-yl)methanone] | Emax [1, 3]: 98%; EC50 [1, 5]: 0.166 µM
6 | 0.073 µM | O=C(c1ccc(C#Cc2cccc(F)c2)cc1)N1CC(O)C1 [Compound 20n, (4-((3-fluorophenyl)ethynyl)phenyl)(3-hydroxyazetidin-1-yl)methanone] | Emax [1, 3]: 104%; EC50 [1, 5]: 0.0595 µM
7 | 0.162 µM | O=C(c1ccc(C#Cc2ccc(F)cc2)cc1)N1CC(O)C1 [Compound 20o, (4-((4-fluorophenyl)ethynyl)phenyl)(3-hydroxyazetidin-1-yl)methanone] | Emax [1, 3]: 103%; EC50 [1, 5]: 0.155 µM
8 | 0.387 µM | O=C(c1ccc(C#Cc2ccc(F)c(F)c2)cc1)N1CC(O)C1 [Compound 20p, (4-((3,4-difluorophenyl)ethynyl)phenyl)(3-hydroxyazetidin-1-yl)methanone] | Emax [1, 3]: 88%; EC50 [1, 5]: 0.314 µM
9 | 0.0143 µM | O=C(c1ccc(C#Cc2ccccc2)cc1)N1CCC(O)CC1 [Compound VU13, (4-hydroxypiperidin-1-yl)(4-(phenylethynyl)phenyl)methanone] | Emax [1]: 50%; EC50 [1, 6]: 0.0136 µM; reversal of amphetamine-induced hyperlocomotion [2]: efficacy in reversing amphetamine-induced hyperlocomotion; also recorded: in vivo efficacy
10 | 0.0327 µM and 0.0434 µM | O=C(c1ccc(C#Cc2ccccc2)cc1)N1CCC(CO)CC1 [Compound VU14/C104B2, (4-(hydroxymethyl)piperidin-1-yl)(4-(phenylethynyl)phenyl)methanone] | Emax [1]: 41%; EC50 [1, 6]: 0.0296 µM; reversal of amphetamine-induced hyperlocomotion [2]: efficacy in reversing amphetamine-induced hyperlocomotion; also recorded: in vivo efficacy
11 | 0.146 µM | O=C(NC1CCc2ccccc21)c1ccc(C#Cc2ccccc2)cc1 (centres unmarked) [N-(2,3-dihydro-1H-inden-1-yl)-4-(phenylethynyl)benzamide] | 
12 | 0.159 µM | O=C(NC1Cc2ccccc2C1)c1ccc(C#Cc2ccccc2)cc1 [N-(2,3-dihydro-1H-inden-2-yl)-4-(phenylethynyl)benzamide] | 
13 | 3.53 µM | CN1CCCC1CCNC(=O)c1ccc(C#Cc2ccccc2)cc1 (centres unmarked) [N-(2-(1-methylpyrrolidin-2-yl)ethyl)-4-(phenylethynyl)benzamide] | 
14 | 2.99 µM | CN(C)CCNC(=O)c1ccc(C#Cc2ccccc2)cc1 [N-(2-(dimethylamino)ethyl)-4-(phenylethynyl)benzamide] | 
15 | 0.135 µM | O=C(NCCc1ccccc1Cl)c1ccc(C#Cc2ccccc2)cc1 [N-(2-chlorophenethyl)-4-(phenylethynyl)benzamide] | 
16 | 0.0753 µM | O=C(NCCC1=CCCCC1)c1ccc(C#Cc2ccccc2)cc1 [N-(2-cyclohexenylethyl)-4-(phenylethynyl)benzamide] | 

Row | EC50 [1, 4] | Structure (SMILES) | other results
17 | 0.137 µM | O=C(NCCN1CCOCC1)c1ccc(C#Cc2ccccc2)cc1 [N-(2-morpholinoethyl)-4-(phenylethynyl)benzamide] | 
18 | 1.16 µM | CC(C)(C)CCNC(=O)c1ccc(-c2nc(-c3ccccc3)no2)cc1 [N-(3,3-dimethylbutyl)-4-(3-phenyl-1,2,4-oxadiazol-5-yl)benzamide] | 
19 | 0.0194 µM | CC(C)(C)CCNC(=O)c1ccc(C#Cc2ccccc2)cc1 [N-(3,3-dimethylbutyl)-4-(phenylethynyl)benzamide] | 
20 | 0.206 µM | O=C(NCCc1cccc(Cl)c1)c1ccc(C#Cc2ccccc2)cc1 [N-(3-chlorophenethyl)-4-(phenylethynyl)benzamide] | 
21 | 0.0862 µM | O=C(NCCCO)c1ccc(C#Cc2ccccc2)cc1 [N-(3-hydroxypropyl)-4-(phenylethynyl)benzamide] | 
22 | 1.23 µM | O=C(NCCCN1CCOCC1)c1ccc(C#Cc2ccccc2)cc1 [N-(3-morpholinopropyl)-4-(phenylethynyl)benzamide] | 
23 | 0.237 µM | O=C(NCCc1ccc(Br)cc1)c1ccc(C#Cc2ccccc2)cc1 [N-(4-bromophenethyl)-4-(phenylethynyl)benzamide] | 
24 | 0.177 µM | O=C(NCCc1ccc(Cl)cc1)c1ccc(C#Cc2ccccc2)cc1 [N-(4-chlorophenethyl)-4-(phenylethynyl)benzamide] | 
25 | 3.33 µM | CC1CCCCN1C(=O)c1ccc(C(=O)Nc2ccc(F)cc2)cc1 (centres unmarked) [N-(4-fluorophenyl)-4-(2-methylpiperidine-1-carbonyl)benzamide] | 
26 | 0.0763 µM | CC1CCC(NC(=O)c2ccc(C#Cc3ccccc3)cc2)CC1 (centres unmarked) [N-(4-methylcyclohexyl)-4-(phenylethynyl)benzamide] | 
27 | 0.0687 µM | O=C(NCC1CCCCC1)c1ccc(C#Cc2ccccc2)cc1 [N-(cyclohexylmethyl)-4-(phenylethynyl)benzamide] | 
28 | 0.0335 µM | CCCCNC(=O)c1ccc(C#Cc2ccccc2)cc1 [N-butyl-4-(phenylethynyl)benzamide] | 
29 | 0.00278 µM | O=C(NC1CCCC1)c1ccc(C#Cc2ccccc2)cc1 [N-cyclopentyl-4-(phenylethynyl)benzamide] | 
30 | 0.0273 µM | CC(C)CCNC(=O)c1ccc(C#Cc2ccccc2)cc1 [N-isopentyl-4-(phenylethynyl)benzamide] | 
31 | 0.00528 µM | O=C(c1ccc(C#Cc2ccccc2)cc1)N1CCOCC1 [morpholino(4-(phenylethynyl)phenyl)methanone] | 

Row | Structure (SMILES) | EC50 [1, 4] | other results
32 | O=C(c1ccc(C#Cc2ccccc2)cc1)N1CCC(O)(c2ccc(F)cc2)CC1 [drawing 155, (4-(4-fluorophenyl)-4-hydroxypiperidin-1-yl)(4-(phenylethynyl)phenyl)methanone] | 1.25 µM | 
33 | O=C(c1ccc(C#Cc2ccccc2)cc1)N1CCC(O)(c2cccc(F)c2)CC1 [drawing 160, (4-(3-fluorophenyl)-4-hydroxypiperidin-1-yl)(4-(phenylethynyl)phenyl)methanone] | 1.77 µM | 
34 | COc1ccc(C2(O)CCN(C(=O)c3ccc(C#Cc4ccccc4)cc3)CC2)cc1 [drawing 173, (4-hydroxy-4-(4-methoxyphenyl)piperidin-1-yl)(4-(phenylethynyl)phenyl)methanone] | 2.63 µM | 
